From patent publication US12508176B2, “Sanitary article comprising a water-soluble dry coating comprising skin beneficial additives” (priority 2022, dated 2025)

Assay: transfer study of dry water-soluble coating from sanitary article to skin (tape stripping, LC-MS/MS)
Format: in vivo, test persons
Text: FIG. 3 is a bar chart illustrating the results from a transfer study made with two sanitary articles according to the present invention. Eight test persons wore sanitary articles on three different spots on the volar forearms for three days (3 products per day). One spot was covered with products coated with formula A, one with products coated with formula B and one with reference product without any formula. After three days the skin in the test spots plus one additional spot where no product had been worn was harvested by means of tape stripping. The sample tape strips were extracted, analyzed by LC-MS/MS quantifying the betaine and allantoin content.

NC(=O)NC1NC(=O)NC1=O (centres unmarked) [allantoin]
transfer to the skin (betaine and allantoin content of tape strips) (sanitary articles coated with formula A or B worn on volar forearms for three days, 3 products per day, tape stripping, LC-MS/MS, FIG. 3): readily detected on the skin

C[N+](C)(C)CC(=O)[O-] [betaine, trimethylglycine]
transfer to the skin (betaine and allantoin content of tape strips) (in vivo): readily detected on the skin
